Blank lines part the entries; values can stand above or below the molecule they belong to. Activity calls are given as the source filed them. The rule behind the calls is not given here.
How the values were obtained:
[1] = target: T1, Lysine-specific demethylase 6B (Homo sapiens, UniProt O15054)
Description: Inhibition of JMJD3 (unknown origin) using biotinylated H3K27me3 peptide as substrate after 1 hr by AlphaLISA assay

[2] = target: T1, Lysine-specific demethylase 6B; assay: Inhibition of JMJD3 (unknown origin) using biotinylated H3K27me3 peptide as substrate at 10 uM after 1 hr by AlphaLISA assay
RAW264.7 [3] = assay: Inhibition of LPS-induced TNFalpha production in mouse RAW264.7 cells 0.82 uM after 24 hrs by ELISA; assay type: functional, cell-based
RAW264.7 [4] = assay: Inhibition of LPS-induced TNFalpha production in mouse RAW264.7 cells after 24 hrs by ELISA; assay type: functional, cell-based
[5] = Intrinsic clearance in human liver microsomes at 1 uM up to 30 mins by LC/MS/MS analysis; assay type: ADME; conditions: read-out: CLH
[6] = Half life in human liver microsomes at 1 uM by LC/MS/MS analysis; assay type: ADME
CYP1A2 = target: T2, CYP1A2 (Homo sapiens, UniProt P05177); assay: Inhibition of CYP1A2 in human liver microsomes at 10 uM after 20 mins; assay type: ADME
T2 sequence (P05177 whole entry): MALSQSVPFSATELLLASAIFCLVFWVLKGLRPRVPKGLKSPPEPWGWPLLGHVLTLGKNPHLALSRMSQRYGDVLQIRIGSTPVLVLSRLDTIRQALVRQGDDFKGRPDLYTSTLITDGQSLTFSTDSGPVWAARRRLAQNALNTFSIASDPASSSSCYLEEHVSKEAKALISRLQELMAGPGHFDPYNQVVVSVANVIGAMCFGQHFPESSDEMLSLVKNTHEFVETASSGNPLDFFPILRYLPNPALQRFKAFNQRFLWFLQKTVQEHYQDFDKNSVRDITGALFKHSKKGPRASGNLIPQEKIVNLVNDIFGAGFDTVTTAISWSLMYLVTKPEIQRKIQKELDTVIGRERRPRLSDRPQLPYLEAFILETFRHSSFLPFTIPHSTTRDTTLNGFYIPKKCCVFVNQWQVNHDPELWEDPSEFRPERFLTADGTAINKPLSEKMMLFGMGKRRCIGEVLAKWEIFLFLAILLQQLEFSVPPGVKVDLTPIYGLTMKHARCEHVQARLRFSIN

CYP2D6 = CYP2D6 (Homo sapiens, UniProt P10635); assay: Inhibition of CYP2D6 in human liver microsomes at 10 uM after 20 mins; assay type: ADME
CYP2D6, sequence (P10635 whole entry): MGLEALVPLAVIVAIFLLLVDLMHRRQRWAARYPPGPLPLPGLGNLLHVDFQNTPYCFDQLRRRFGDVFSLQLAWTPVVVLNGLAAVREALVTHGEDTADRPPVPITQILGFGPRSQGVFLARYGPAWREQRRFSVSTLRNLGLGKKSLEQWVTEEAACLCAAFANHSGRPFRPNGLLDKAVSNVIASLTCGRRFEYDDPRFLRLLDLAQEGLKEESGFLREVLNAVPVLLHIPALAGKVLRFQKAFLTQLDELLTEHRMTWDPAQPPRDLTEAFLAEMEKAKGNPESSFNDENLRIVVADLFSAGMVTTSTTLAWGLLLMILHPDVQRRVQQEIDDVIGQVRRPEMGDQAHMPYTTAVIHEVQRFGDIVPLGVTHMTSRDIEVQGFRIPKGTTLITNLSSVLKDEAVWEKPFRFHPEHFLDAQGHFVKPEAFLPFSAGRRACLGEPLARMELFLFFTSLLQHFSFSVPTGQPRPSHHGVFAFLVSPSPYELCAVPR

CYP2C19 = CYP2C19 (Homo sapiens, UniProt P33261); assay: Inhibition of CYP2C19 in human liver microsomes at 10 uM after 20 mins; assay type: ADME
CYP2C19, sequence (P33261 whole entry): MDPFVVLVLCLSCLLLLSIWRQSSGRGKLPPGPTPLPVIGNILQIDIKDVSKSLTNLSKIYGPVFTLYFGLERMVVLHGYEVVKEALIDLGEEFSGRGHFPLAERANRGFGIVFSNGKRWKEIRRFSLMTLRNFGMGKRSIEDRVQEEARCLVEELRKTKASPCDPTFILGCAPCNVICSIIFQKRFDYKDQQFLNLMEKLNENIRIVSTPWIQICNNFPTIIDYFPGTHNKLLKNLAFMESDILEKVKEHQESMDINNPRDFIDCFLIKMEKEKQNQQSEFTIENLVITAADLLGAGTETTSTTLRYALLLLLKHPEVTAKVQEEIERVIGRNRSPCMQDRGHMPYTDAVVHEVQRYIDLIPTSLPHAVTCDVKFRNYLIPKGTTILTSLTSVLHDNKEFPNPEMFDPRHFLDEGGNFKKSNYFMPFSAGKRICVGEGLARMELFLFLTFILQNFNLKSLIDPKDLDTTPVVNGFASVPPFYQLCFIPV

CYP2C9 = CYP2C9 (Homo sapiens, UniProt P11712); assay: Inhibition of CYP2C9 in human liver microsomes at 10 uM after 20 mins; assay type: ADME
CYP2C9, sequence (P11712 whole entry): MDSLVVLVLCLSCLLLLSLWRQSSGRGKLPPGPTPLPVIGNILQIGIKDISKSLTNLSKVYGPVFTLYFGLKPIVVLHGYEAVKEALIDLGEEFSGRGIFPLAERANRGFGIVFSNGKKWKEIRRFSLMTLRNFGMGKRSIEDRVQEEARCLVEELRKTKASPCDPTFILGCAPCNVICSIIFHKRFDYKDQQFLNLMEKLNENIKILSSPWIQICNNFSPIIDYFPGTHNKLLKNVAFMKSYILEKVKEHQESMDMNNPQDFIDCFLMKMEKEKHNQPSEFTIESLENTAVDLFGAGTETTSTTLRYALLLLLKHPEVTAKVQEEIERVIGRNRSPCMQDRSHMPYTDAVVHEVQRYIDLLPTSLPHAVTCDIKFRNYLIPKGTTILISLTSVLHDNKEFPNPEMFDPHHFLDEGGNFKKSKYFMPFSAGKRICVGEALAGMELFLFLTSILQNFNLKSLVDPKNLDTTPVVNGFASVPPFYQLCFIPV

CYP3A4 = CYP3A4 (Homo sapiens, UniProt P08684); assay: in vitro; conditions: liver microsomes
CYP3A4, sequence (P08684 whole entry): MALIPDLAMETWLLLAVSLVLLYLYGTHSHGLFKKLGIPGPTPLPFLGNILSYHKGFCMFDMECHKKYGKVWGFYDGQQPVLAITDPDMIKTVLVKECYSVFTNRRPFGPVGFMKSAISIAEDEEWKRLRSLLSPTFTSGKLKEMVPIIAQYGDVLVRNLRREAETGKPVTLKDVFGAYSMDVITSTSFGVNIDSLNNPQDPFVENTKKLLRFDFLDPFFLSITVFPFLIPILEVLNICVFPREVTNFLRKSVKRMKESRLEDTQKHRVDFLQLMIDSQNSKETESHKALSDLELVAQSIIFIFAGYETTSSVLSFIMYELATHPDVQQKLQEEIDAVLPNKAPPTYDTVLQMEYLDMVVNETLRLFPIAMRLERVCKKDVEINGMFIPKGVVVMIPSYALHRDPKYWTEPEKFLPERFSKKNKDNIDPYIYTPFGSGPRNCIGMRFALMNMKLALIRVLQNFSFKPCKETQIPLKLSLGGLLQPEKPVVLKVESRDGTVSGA
Description: Inhibition of CYP3A4 in human liver microsomes at 10 uM after 20 mins

T1 sequence (O15054 whole entry): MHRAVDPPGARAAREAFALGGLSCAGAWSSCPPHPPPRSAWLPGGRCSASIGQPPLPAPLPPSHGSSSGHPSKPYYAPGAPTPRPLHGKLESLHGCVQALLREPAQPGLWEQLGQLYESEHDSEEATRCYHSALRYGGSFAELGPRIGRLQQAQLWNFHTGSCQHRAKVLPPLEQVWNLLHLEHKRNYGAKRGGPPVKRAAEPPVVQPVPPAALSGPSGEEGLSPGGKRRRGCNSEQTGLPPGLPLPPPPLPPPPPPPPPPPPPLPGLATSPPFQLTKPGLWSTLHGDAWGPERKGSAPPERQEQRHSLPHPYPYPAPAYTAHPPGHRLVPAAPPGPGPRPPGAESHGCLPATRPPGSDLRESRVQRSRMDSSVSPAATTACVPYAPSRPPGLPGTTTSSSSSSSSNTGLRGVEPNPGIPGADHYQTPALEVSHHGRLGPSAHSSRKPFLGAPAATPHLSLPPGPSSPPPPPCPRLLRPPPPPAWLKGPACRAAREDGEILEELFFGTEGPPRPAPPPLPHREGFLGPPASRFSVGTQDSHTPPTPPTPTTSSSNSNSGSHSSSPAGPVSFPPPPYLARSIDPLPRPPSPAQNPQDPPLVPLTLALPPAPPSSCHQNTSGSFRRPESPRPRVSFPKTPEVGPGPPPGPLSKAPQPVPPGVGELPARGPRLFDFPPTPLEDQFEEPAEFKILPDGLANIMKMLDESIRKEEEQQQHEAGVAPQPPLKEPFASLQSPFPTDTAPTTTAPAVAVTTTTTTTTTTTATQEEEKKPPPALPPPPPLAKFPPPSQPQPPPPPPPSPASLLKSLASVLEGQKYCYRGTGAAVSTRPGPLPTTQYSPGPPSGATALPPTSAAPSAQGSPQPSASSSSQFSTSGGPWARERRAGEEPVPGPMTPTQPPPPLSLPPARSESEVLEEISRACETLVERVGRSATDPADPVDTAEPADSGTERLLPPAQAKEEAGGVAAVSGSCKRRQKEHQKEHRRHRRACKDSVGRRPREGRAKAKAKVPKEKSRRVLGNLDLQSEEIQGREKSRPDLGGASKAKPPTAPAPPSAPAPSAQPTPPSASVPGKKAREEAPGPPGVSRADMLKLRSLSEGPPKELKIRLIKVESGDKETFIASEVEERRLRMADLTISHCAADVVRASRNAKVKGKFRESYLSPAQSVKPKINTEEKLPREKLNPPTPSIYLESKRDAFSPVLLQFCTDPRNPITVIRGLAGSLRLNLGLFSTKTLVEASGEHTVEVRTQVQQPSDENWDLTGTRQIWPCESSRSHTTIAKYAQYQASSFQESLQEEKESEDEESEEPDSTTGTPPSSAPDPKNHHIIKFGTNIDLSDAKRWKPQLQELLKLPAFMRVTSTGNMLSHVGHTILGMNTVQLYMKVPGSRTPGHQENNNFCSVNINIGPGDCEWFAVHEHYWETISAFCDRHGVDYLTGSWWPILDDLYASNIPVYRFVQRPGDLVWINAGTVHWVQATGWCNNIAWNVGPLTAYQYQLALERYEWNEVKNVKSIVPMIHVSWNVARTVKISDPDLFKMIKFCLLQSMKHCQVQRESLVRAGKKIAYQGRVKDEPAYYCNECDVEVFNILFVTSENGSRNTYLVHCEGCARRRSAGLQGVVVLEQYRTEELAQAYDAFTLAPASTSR

IC50 [1]: 740 nM
Compound: O=C(O)CCNc1nc(N2CCN(c3ccc(Cl)c(Cl)c3)CC2)cc(-n2cccn2)n1

IC50 [1]: 1400 nM
Compound: O=C(O)CCNc1nc(N2CCc3ccccc3C2)cc(-n2ccnn2)n1

IC50 [1]: 1300 nM
Compound: O=C(O)CCNc1nc(N2CCN(c3ccccn3)CC2)cc(-n2nccn2)n1

IC50 [1]: 10000 nM
Compound: O=C(O)CCNc1nc(N2CCN(c3ccc(F)cc3)CC2)cc(-n2ccnn2)n1

half-life at 1 µM [6]: > 11.6 h
inhibition at 20 min, 10 µM (CYP1A2): 5%
IC50 [1]: 150 nM
inhibition at 20 min, 10 µM (CYP2D6): 5%
inhibition at 20 min, 10 µM (CYP2C19): 3%
inhibition at 20 min, 10 µM (CYP2C9): 5%
inhibition at 20 min, 10 µM (CYP3A4): 3%
Compound: O=C(O)CCNc1nc(N2CCc3ccccc3CC2)cc(-n2cccn2)n1

IC50 [1]: 1200 nM
Compound: O=C(O)CCNc1nc(N2CCC(c3ccccc3)CC2)cc(-n2nccn2)n1

IC50 [1]: 1400 nM
Compound: O=C(O)CCNc1nc(N2CCN(c3ccc(Cl)c(Cl)c3)CC2)cc(-n2nccn2)n1

IC50 [1]: 490 nM
Compound: O=C(O)CCNc1nc(N2CCc3ccccc3C2)cc(-n2cccn2)n1

IC50 [1]: > 20000 nM
Compound: COc1ccccc1N1CCN(c2cc(-n3nccn3)nc(NCCC(=O)O)n2)CC1

IC50 [1]: 1500 nM
Compound: O=C(O)CCNc1nc(N2CCc3ccccc3C2)cc(-n2nccn2)n1

inhibition [2]: 54%
Compound: O=C(O)CCNc1nc(N2CCN(c3ccccn3)CC2)cc(-n2cc3ccccc3n2)n1

half-life at 1 µM [6]: > 11.6 h
inhibition at 20 min, 10 µM (CYP1A2): 1%
IC50 [1]: 210 nM
inhibition at 20 min, 10 µM (CYP2D6): 6%
inhibition at 20 min, 10 µM (CYP2C19): 8%
inhibition at 20 min, 10 µM (CYP2C9): 1%
inhibition at 20 min, 10 µM (CYP3A4): 7%
Compound: O=C(O)CCNc1nc(N2CCc3ccccc3CC2)cc(-n2ccnn2)n1

IC50 [1]: 750 nM
Compound: O=C(O)CCNc1nc(N2CCC(c3ccccc3)CC2)cc(-n2cccn2)n1

IC50 [1]: 5800 nM
Compound: O=C(O)CCNc1nc(N2CCN(c3ccc(F)cc3)CC2)cc(-n2cc3ccccc3n2)n1

IC50 [1]: 2600 nM
Compound: O=C(O)CCNc1nc(N2CCN(c3ccc(F)cc3)CC2)cc(-n2nccn2)n1

IC50 [1]: > 20000 nM
Compound: COc1ccccc1N1CCN(c2cc(-n3cccn3)nc(NCCC(=O)O)n2)CC1

IC50 [1]: 1000 nM
Compound: O=C(O)CCNc1nc(N2CCN(c3ccccn3)CC2)cc(-n2cccn2)n1

inhibition [2]: 74%
Compound: O=C(O)CCNc1nc(N2CCN(c3ccc(Cl)c(Cl)c3)CC2)cc(-n2ccnn2)n1

IC50 [1]: 600 nM
Compound: O=C(O)CCNc1nc(-c2nccs2)cc(N2CCN(c3ccc(F)cc3)CC2)n1

IC50 [1]: 900 nM
Compound: O=C(O)CCNc1nc(-c2nccs2)cc(N2CCN(c3ccccn3)CC2)n1

IC50 [1]: 2100 nM
Compound: COc1ccccc1N1CCN(c2cc(-c3nccs3)nc(NCCC(=O)O)n2)CC1

microsomal CLint at 1 µM [5]: 1 µL/min/mg
half-life at 1 µM [6]: 38.5 h
inhibition at 20 min, 10 µM (CYP1A2): 4%
IC50 [1]: 270 nM
inhibition at 20 min, 10 µM (CYP2D6): 6%
inhibition at 20 min, 10 µM (CYP2C19): 4%
inhibition at 20 min, 10 µM (CYP2C9): 4%
inhibition at 20 min, 10 µM (CYP3A4): 7%
Compound: O=C(O)CCNc1nc(N2CCc3ccccc3CC2)cc(-n2nccn2)n1

IC50 [1]: > 100000 nM
Compound: O=C(O)CCNc1nc(N2CCN(c3ccc(Cl)c(Cl)c3)CC2)cc(-n2cc3ccccc3n2)n1

IC50 [1]: 550 nM
Compound: O=C(O)CCNc1nc(N2CCN(c3ccc(F)cc3)CC2)cc(-n2cccn2)n1

More lines, now with the values behind:

Compound: CC(C)(C)OC(=O)NC1CCN(c2cc(-c3nccs3)nc(NCCC(=O)O)n2)CC1
inhibition [2]: 9.8%

Compound: O=C(O)CCNc1nc(NC2CCN(Cc3ccccc3)CC2)cc(-c2nccs2)n1
inhibition [2]: 10%

Compound: Cc1ccccc1CNc1cc(-c2nccs2)nc(NCCC(=O)O)n1
inhibition [2]: -0.6%

Compound: CCOC(=O)CCNc1cc(N2CCc3ccccc3CC2)nc(-c2ccccn2)n1
inhibition (RAW264.7 [3]): Active
inhibition (RAW264.7 [4]): Active

Compound: O=C(O)CCNc1cc(N2CCc3ccccc3CC2)nc(-c2ccccn2)n1
microsomal CLint at 1 µM [5]: 3 µL/min/mg
half-life at 1 µM [6]: 8.25 h
inhibition at 20 min, 10 µM (CYP1A2): 10%
inhibition at 20 min, 10 µM (CYP2D6): 20%
inhibition at 20 min, 10 µM (CYP2C19): 16%
inhibition at 20 min, 10 µM (CYP2C9): 5%

Compound: CC(C)NC(=O)CN1CCN(c2cc(-c3nccs3)nc(NCCC(=O)O)n2)CC1
inhibition [2]: -5.1%

Compound: O=C(O)CCNc1nc(-c2nccs2)cc(N2CCC(c3ccccc3)CC2)n1
IC50 [1]: 1200 nM

Compound: O=C(O)CCNc1nc(N2CCC(c3ccccc3)CC2)cc(-n2ccnn2)n1
IC50 [1]: 2100 nM

Compound: Cc1ccccc1C1CCN(c2cc(-c3nccs3)nc(NCCC(=O)O)n2)CC1
inhibition [2]: 87.5%

Compound: O=C(O)CCNc1nc(NCc2cc(C(F)(F)F)cc(C(F)(F)F)c2)cc(-c2nccs2)n1
inhibition [2]: 1%

Compound: CC(=O)N1CCN(c2cc(-c3nccs3)nc(NCCC(=O)O)n2)CC1
inhibition [2]: 32.9%

Compound: O=C(O)CCNc1nc(N2CCC(c3ccccc3)CC2)cc(-n2cc3ccccc3n2)n1
inhibition [2]: 30%

Compound: CCOC(=O)CCNc1nc(-c2nccs2)cc(N2CCc3ccccc3CC2)n1
inhibition (RAW264.7 [3]): Active
inhibition (RAW264.7 [4]): Active

Compound: CCOC(=O)CCNc1nc(N2CCc3ccccc3CC2)cc(-n2nccn2)n1
inhibition (RAW264.7 [3]): Active
inhibition (RAW264.7 [4]): Dose-dependent effect

Compound: O=C(O)CCNc1nc(-c2nccs2)cc(N2CCN(c3ccc(Cl)c(Cl)c3)CC2)n1
IC50 [1]: 940 nM

Compound: O=C(O)CCNc1nc(N2CCc3ccccc3C2)cc(-n2cc3ccccc3n2)n1
IC50 [1]: 6100 nM

Compound: O=C(O)CCNc1nc(N2CCc3ccccc3CC2)cc(-n2cc3ccccc3n2)n1
microsomal CLint at 1 µM [5]: 5 µL/min/mg
half-life at 1 µM [6]: 4.28 h
inhibition at 20 min, 10 µM (CYP1A2): 8%
IC50 [1]: 2200 nM
inhibition at 20 min, 10 µM (CYP2D6): 0%
inhibition at 20 min, 10 µM (CYP2C19): 11%
inhibition at 20 min, 10 µM (CYP2C9): 17%
inhibition at 20 min, 10 µM (CYP3A4): 4%

Compound: CN(Cc1ccco1)c1cc(-c2nccs2)nc(NCCC(=O)O)n1
inhibition [2]: 43.9%

Compound: O=C(O)CCNc1nc(-c2nccs2)cc(N2CCC(N3CCCC3)CC2)n1
inhibition [2]: -8.4%

Compound: O=C(O)CCNc1nc(NC2Cc3ccccc3C2)cc(-c2nccs2)n1
inhibition [2]: 21.1%

Compound: COc1cc(CNc2cc(-c3nccs3)nc(NCCC(=O)O)n2)cc(OC)c1
inhibition [2]: -8.7%

Compound: O=C(O)CCNc1nc(-c2nccs2)cc(N2CCc3ccccc3CC2)n1
microsomal CLint at 1 µM [5]: 5 µL/min/mg
half-life at 1 µM [6]: 4.44 h
inhibition at 20 min, 10 µM (CYP1A2): 9%
IC50 [1]: 200 nM
inhibition at 20 min, 10 µM (CYP2D6): 8%
inhibition at 20 min, 10 µM (CYP2C19): 13%
inhibition at 20 min, 10 µM (CYP2C9): 9%
inhibition at 20 min, 10 µM (CYP3A4): 12%

Compound: CCOC(=O)CCNc1nc(N2CCc3ccccc3CC2)cc(-n2cccn2)n1
inhibition (RAW264.7 [3]): Active
inhibition (RAW264.7 [4]): Dose-dependent effect

Compound: O=C(O)CCNc1nc(-c2nccs2)cc(N2CCc3ccccc3C2)n1
IC50 [1]: 990 nM

Compound: CCOC(=O)CCNc1nc(N2CCc3ccccc3CC2)cc(-n2ccnn2)n1
inhibition (RAW264.7 [3]): Active
inhibition (RAW264.7 [4]): Active

— ChEMBL document CHEMBL3751830, “Design and discovery of new pyrimidine coupled nitrogen aromatic rings as chelating groups of JMJD3 inhibitors” (Bioorg Med Chem Lett, 2016)
